Data from PubChem BioAssay (NCI).
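Cells were grown in 96-well plates and exposed to each compound for 48 hours at five concentrations; endpoints were interpolated linearly between bracketing concentrations, or set to the highest concentration if not reached. GI50 is the concentration that inhibits growth by half. TGI marks complete inhibition of growth.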

Columns and labels:
Test in all cases: NCI-60 cell line screen, 48 h
SF-539 CNS = tested on: SF-539 CNS
HCT-116 colon = tested on: HCT-116 colon
MALME-3M melanoma = tested on: MALME-3M melanoma
HT29 colon = tested on: HT29 colon
SN12C renal = tested on: SN12C renal
MDA-MB-435 = tested on: MDA-MB-435
OVCAR-5 ovarian = tested on: OVCAR-5 ovarian
SK-MEL-5 melanoma = tested on: SK-MEL-5 melanoma
UO-31 renal = tested on: UO-31 renal
TK-10 renal = tested on: TK-10 renal
NCI/ADR-RES ovarian = tested on: NCI/ADR-RES ovarian
786-0 renal = tested on: 786-0 renal
SNB-75 CNS = tested on: SNB-75 CNS
SF-268 CNS = tested on: SF-268 CNS
HCT-15 colon = tested on: HCT-15 colon
PC-3 prostate = tested on: PC-3 prostate
OVCAR-8 ovarian = tested on: OVCAR-8 ovarian
MOLT-4 leukemia = tested on: MOLT-4 leukemia
MDA-MB-231 breast = tested on: MDA-MB-231 breast
NCI-H460 lung = tested on: NCI-H460 lung
SK-OV-3 ovarian = tested on: SK-OV-3 ovarian
UACC-62 melanoma = tested on: UACC-62 melanoma
U251 CNS = tested on: U251 CNS
K-562 leukemia = tested on: K-562 leukemia
LOX IMVI melanoma = tested on: LOX IMVI melanoma
M14 melanoma = tested on: M14 melanoma
SF-295 CNS = tested on: SF-295 CNS
OVCAR-3 ovarian = tested on: OVCAR-3 ovarian
IGROV1 ovarian = tested on: IGROV1 ovarian
A498 renal = tested on: A498 renal
SNB-19 CNS = tested on: SNB-19 CNS
KM12 colon = tested on: KM12 colon
COLO 205 colon = tested on: COLO 205 colon
RPMI-8226 leukemia = tested on: RPMI-8226 leukemia
SK-MEL-2 melanoma = tested on: SK-MEL-2 melanoma
SK-MEL-28 melanoma = tested on: SK-MEL-28 melanoma
ACHN renal = tested on: ACHN renal
CAKI-1 renal = tested on: CAKI-1 renal
UACC-257 melanoma = tested on: UACC-257 melanoma
HS 578T breast = tested on: HS 578T breast
MDA-N = tested on: MDA-N
MCF7 breast = tested on: MCF7 breast
SW-620 colon = tested on: SW-620 colon
BT-549 breast = tested on: BT-549 breast
HOP-62 NSCLC = tested on: HOP-62 NSCLC
NCI-H23 lung = tested on: NCI-H23 lung
A549 NSCLC = tested on: A549 NSCLC
OVCAR-4 ovarian = tested on: OVCAR-4 ovarian
HL-60(TB) leukemia = tested on: HL-60(TB) leukemia

Question: For `NC(C(=O)[O-])C(=O)[O-].NC1CCCCC1N.[Pt+4]`, which GI50 (SF-539 CNS) is on record?
Answer: The GI50 was 5.36 µM.

Question: What about the TGI (SF-539 CNS) of the same molecule?
Answer: Its TGI is greater than 100 µM.

Question: And the GI50 (HCT-116 colon)?
Answer: Its GI50 is 2.49 µM.

Question: What about the TGI (HCT-116 colon) of the same molecule?
Answer: The TGI was 26.6 µM.

Question: And the GI50 (MALME-3M melanoma)?
Answer: The GI50 was 0.294 µM.

Question: And the TGI (MALME-3M melanoma)?
Answer: The TGI was 2.92 µM.

Question: What about the GI50 (HT29 colon) of the same molecule?
Answer: Its GI50 is 2.65 µM.

Question: What about the TGI (HT29 colon) of the same molecule?
Answer: Its TGI is greater than 100 µM.

Question: And the GI50 (SN12C renal)?
Answer: Its GI50 is 4.5 µM.

Question: What about the TGI (SN12C renal) of the same molecule?
Answer: Its TGI is greater than 100 µM.

Question: And the GI50 (MDA-MB-435)?
Answer: The GI50 was 4.04 µM.

Question: And the TGI (MDA-MB-435)?
Answer: Its TGI is greater than 100 µM.

Question: What about the GI50 (OVCAR-5 ovarian) of the same molecule?
Answer: The GI50 was 2.64 µM.

Question: What about the TGI (OVCAR-5 ovarian) of the same molecule?
Answer: The TGI was greater than 100 µM.

Question: And the GI50 (SK-MEL-5 melanoma)?
Answer: Its GI50 is 1.84 µM.

Question: What about the TGI (SK-MEL-5 melanoma) of the same molecule?
Answer: The TGI was 12 µM.

Question: And the GI50 (UO-31 renal)?
Answer: The GI50 was 52.7 µM.

Question: And the TGI (UO-31 renal)?
Answer: Its TGI is greater than 100 µM.

Question: What about the GI50 (TK-10 renal) of the same molecule?
Answer: Its GI50 is 3.1 µM.

Question: And the TGI (TK-10 renal)?
Answer: The TGI was 8.61 µM.

Question: And the GI50 (NCI/ADR-RES ovarian)?
Answer: The GI50 was 4.41 µM.

Question: And the TGI (NCI/ADR-RES ovarian)?
Answer: Its TGI is greater than 100 µM.

Question: What about the GI50 (786-0 renal) of the same molecule?
Answer: The GI50 was 5.79 µM.

Question: And the TGI (786-0 renal)?
Answer: The TGI was greater than 100 µM.

Question: What about the GI50 (SNB-75 CNS) of the same molecule?
Answer: Its GI50 is greater than 100 µM.

Question: And the TGI (SNB-75 CNS)?
Answer: Its TGI is greater than 100 µM.

Question: And the GI50 (SF-268 CNS)?
Answer: Its GI50 is 0.188 µM.

Question: What about the TGI (SF-268 CNS) of the same molecule?
Answer: Its TGI is 6.71 µM.

Question: What about the GI50 (HCT-15 colon) of the same molecule?
Answer: Its GI50 is 4.41 µM.

Question: What about the TGI (HCT-15 colon) of the same molecule?
Answer: The TGI was greater than 100 µM.

Question: What about the GI50 (PC-3 prostate) of the same molecule?
Answer: Its GI50 is 4.67 µM.

Question: What about the TGI (PC-3 prostate) of the same molecule?
Answer: The TGI was greater than 100 µM.

Question: And the GI50 (OVCAR-8 ovarian)?
Answer: The GI50 was greater than 100 µM.

Question: What about the TGI (OVCAR-8 ovarian) of the same molecule?
Answer: The TGI was greater than 100 µM.

Question: And the GI50 (MOLT-4 leukemia)?
Answer: Its GI50 is 6.42 µM.

Question: And the TGI (MOLT-4 leukemia)?
Answer: Its TGI is greater than 100 µM.

Question: And the GI50 (MDA-MB-231 breast)?
Answer: The GI50 was 31.8 µM.

Question: What about the TGI (MDA-MB-231 breast) of the same molecule?
Answer: The TGI was greater than 100 µM.

Question: What about the GI50 (NCI-H460 lung) of the same molecule?
Answer: Its GI50 is 2.29 µM.

Question: And the TGI (NCI-H460 lung)?
Answer: The TGI was 14.7 µM.

Question: What about the GI50 (SK-OV-3 ovarian) of the same molecule?
Answer: The GI50 was 13.2 µM.

Question: What about the TGI (SK-OV-3 ovarian) of the same molecule?
Answer: Its TGI is greater than 100 µM.

Question: And the GI50 (UACC-62 melanoma)?
Answer: Its GI50 is 2.39 µM.

Question: What about the TGI (UACC-62 melanoma) of the same molecule?
Answer: The TGI was 54.5 µM.

Question: What about the GI50 (U251 CNS) of the same molecule?
Answer: The GI50 was 4.63 µM.

Question: And the TGI (U251 CNS)?
Answer: The TGI was greater than 100 µM.

Question: And the GI50 (K-562 leukemia)?
Answer: Its GI50 is 5.8 µM.

Question: And the TGI (K-562 leukemia)?
Answer: The TGI was greater than 100 µM.

Question: And the GI50 (LOX IMVI melanoma)?
Answer: The GI50 was 2.85 µM.

Question: What about the TGI (LOX IMVI melanoma) of the same molecule?
Answer: The TGI was greater than 100 µM.

Question: And the GI50 (M14 melanoma)?
Answer: The GI50 was 20.2 µM.

Question: And the TGI (M14 melanoma)?
Answer: The TGI was greater than 100 µM.

Question: And the GI50 (SF-295 CNS)?
Answer: The GI50 was 2.27 µM.

Question: What about the TGI (SF-295 CNS) of the same molecule?
Answer: The TGI was 32.5 µM.

Question: And the GI50 (OVCAR-3 ovarian)?
Answer: The GI50 was 2.45 µM.

Question: And the TGI (OVCAR-3 ovarian)?
Answer: Its TGI is 24 µM.

Question: What about the GI50 (IGROV1 ovarian) of the same molecule?
Answer: Its GI50 is 16.3 µM.

Question: What about the TGI (IGROV1 ovarian) of the same molecule?
Answer: The TGI was greater than 100 µM.

Question: And the GI50 (A498 renal)?
Answer: The GI50 was 11.6 µM.

Question: And the TGI (A498 renal)?
Answer: Its TGI is greater than 100 µM.

Question: What about the GI50 (SNB-19 CNS) of the same molecule?
Answer: The GI50 was 6.54 µM.

Question: What about the TGI (SNB-19 CNS) of the same molecule?
Answer: Its TGI is greater than 100 µM.

Question: What about the GI50 (KM12 colon) of the same molecule?
Answer: The GI50 was 12.5 µM.

Question: What about the TGI (KM12 colon) of the same molecule?
Answer: Its TGI is greater than 100 µM.

Question: And the GI50 (COLO 205 colon)?
Answer: Its GI50 is 2.84 µM.

Question: What about the TGI (COLO 205 colon) of the same molecule?
Answer: Its TGI is greater than 100 µM.

Question: What about the GI50 (RPMI-8226 leukemia) of the same molecule?
Answer: Its GI50 is 0.957 µM.

Question: And the TGI (RPMI-8226 leukemia)?
Answer: The TGI was 19.2 µM.

Question: And the GI50 (SK-MEL-2 melanoma)?
Answer: The GI50 was greater than 100 µM.

Question: And the TGI (SK-MEL-2 melanoma)?
Answer: The TGI was greater than 100 µM.

Question: And the GI50 (SK-MEL-28 melanoma)?
Answer: Its GI50 is 12.7 µM.

Question: What about the TGI (SK-MEL-28 melanoma) of the same molecule?
Answer: Its TGI is greater than 100 µM.

Question: And the GI50 (ACHN renal)?
Answer: Its GI50 is 11.2 µM.

Question: What about the TGI (ACHN renal) of the same molecule?
Answer: Its TGI is greater than 100 µM.

Question: And the GI50 (CAKI-1 renal)?
Answer: The GI50 was 1.07 µM.

Question: And the TGI (CAKI-1 renal)?
Answer: Its TGI is 3.99 µM.

Question: And the GI50 (UACC-257 melanoma)?
Answer: Its GI50 is greater than 100 µM.

Question: And the TGI (UACC-257 melanoma)?
Answer: The TGI was greater than 100 µM.

Question: What about the GI50 (HS 578T breast) of the same molecule?
Answer: The GI50 was greater than 100 µM.

Question: And the TGI (HS 578T breast)?
Answer: The TGI was greater than 100 µM.

Question: And the GI50 (MDA-N)?
Answer: The GI50 was 7.47 µM.

Question: And the TGI (MDA-N)?
Answer: The TGI was greater than 100 µM.

Question: What about the GI50 (MCF7 breast) of the same molecule?
Answer: Its GI50 is 1.71 µM.

Question: What about the TGI (MCF7 breast) of the same molecule?
Answer: The TGI was 5.49 µM.

Question: What about the GI50 (SW-620 colon) of the same molecule?
Answer: The GI50 was 1.75 µM.

Question: And the TGI (SW-620 colon)?
Answer: The TGI was greater than 100 µM.

Question: And the GI50 (BT-549 breast)?
Answer: Its GI50 is greater than 100 µM.

Question: What about the TGI (BT-549 breast) of the same molecule?
Answer: Its TGI is greater than 100 µM.

Question: What about the GI50 (HOP-62 NSCLC) of the same molecule?
Answer: The GI50 was 8.45 µM.

Question: And the TGI (HOP-62 NSCLC)?
Answer: The TGI was greater than 100 µM.

Question: What about the GI50 (NCI-H23 lung) of the same molecule?
Answer: Its GI50 is 13.9 µM.

Question: And the TGI (NCI-H23 lung)?
Answer: Its TGI is greater than 100 µM.

Question: What about the GI50 (A549 NSCLC) of the same molecule?
Answer: The GI50 was 2.63 µM.

Question: And the TGI (A549 NSCLC)?
Answer: Its TGI is greater than 100 µM.

Question: And the GI50 (OVCAR-4 ovarian)?
Answer: The GI50 was 11.3 µM.

Question: And the TGI (OVCAR-4 ovarian)?
Answer: Its TGI is greater than 100 µM.

Question: And the GI50 (HL-60(TB) leukemia)?
Answer: Its GI50 is 5.28 µM.

Question: What about the TGI (HL-60(TB) leukemia) of the same molecule?
Answer: Its TGI is greater than 100 µM.
